The results in this text go back to PubChem BioAssay AID248 (DTP/NCI, 2004).

Toxic doses and inconclusive results are not listed. Peptide text beside a SMILES is read from it.

In the assay the test system is L1210 leukemia ip in BDF1 mice, survival T/C. The experiment in a line: NCI In Vivo Anticancer Drug Screen. Data for tumor model L1210 Leukemia (intraperitoneal) in B6D2F1 (BDF1) mice. The following applies: endpoint: mean survival time, higher = longer survival. The essentials:
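Value reflects the ratio of survival in compound-treated mice to survival in vehicle-treated controls, with both groups carrying the same transplanted tumor.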

[1] abbreviates: dose: 100.0 mg/kg/injection, schedule: Q01DX009 (ip), vehicle: Klucel (hydroxypropylcellulose) (HPC).
[2] abbreviates: dose: 200.0 mg/kg/injection, schedule: Q01DX009 (ip), vehicle: Klucel (hydroxypropylcellulose) (HPC).
The mark [3] stands for this setting: dose: 400.0 mg/kg/injection, schedule: Q01DX009 (ip), vehicle: Klucel (hydroxypropylcellulose) (HPC).
The mark [4] stands for this setting: dose: 400.0 mg/kg/injection, schedule: Q04DX003 (ip), vehicle: Klucel (hydroxypropylcellulose) (HPC).
The mark [5] stands for this setting: dose: 100.0 mg/kg/injection, schedule: Q01DX001 (ip), vehicle: saline.
Setting [6] is: dose: 100.0 mg/kg/injection, schedule: Q04DX003 (ip), vehicle: Klucel (hydroxypropylcellulose) (HPC).
Where [7] appears, read: dose: 200.0 mg/kg/injection, schedule: Q04DX003 (ip), vehicle: Klucel (hydroxypropylcellulose) (HPC).
[8] abbreviates: dose: 100.0 mg/kg/injection, schedule: Q01DX009 (ip), vehicle: saline with Tween-80.
Setting [9] is: dose: 200.0 mg/kg/injection, schedule: Q01DX009 (ip), vehicle: saline with Tween-80.
[10] abbreviates: dose: 400.0 mg/kg/injection, schedule: Q01DX009 (ip), vehicle: saline with Tween-80.

In the case of `CN(C)/N=N/c1nc(Cc2ccccc2)[nH]c1C(N)=O`, the T/C reads like this: under setting [1], 108 % of control; (dose: 177.0 mg/kg/injection, schedule: Q01DX009 (ip), vehicle: Klucel (hydroxypropylcellulose) (HPC)) 116 % of control; under setting [2], 112 % of control; (dose: 266.0 mg/kg/injection, schedule: Q01DX009 (ip), vehicle: Klucel (hydroxypropylcellulose) (HPC)) 122 % of control; (dose: 266.0 mg/kg/injection, schedule: Q04DX003 (ip), vehicle: Klucel (hydroxypropylcellulose) (HPC)) 109 % of control; under setting [3], 155 % of control. Besides, the T/C by setting is: under setting [4], 109 % of control; (dose: 600.0 mg/kg/injection, schedule: Q04DX003 (ip), vehicle: Klucel (hydroxypropylcellulose) (HPC)) 106 % of control.

Take `C=CS(=O)(=O)CCCCCCCC`: the T/C is 97 % of control (dose: 75.0 mg/kg/injection, schedule: Q01DX001 (ip), vehicle: saline); 92 % of control (dose: 75.0 mg/kg/injection, schedule: Q04DX003 (ip), vehicle: other); 89 % of control (dose: 150.0 mg/kg/injection, schedule: Q01DX001 (ip), vehicle: saline); 100 % of control (dose: 150.0 mg/kg/injection, schedule: Q04DX003 (ip), vehicle: other); 91 % of control (dose: 300.0 mg/kg/injection, schedule: Q01DX001 (ip), vehicle: saline); 89 % of control (dose: 300.0 mg/kg/injection, schedule: Q04DX003 (ip), vehicle: other).

For `O=C(CCN1CC=C(c2ccccc2)CC1)c1ccc(N2CC=C(c3ccccc3)CC2)cc1`, the T/C runs as follows: (dose: 75.0 mg/kg/injection, schedule: Q04DX002 (ip), vehicle: saline with Tween-80) 100 % of control; (dose: 150.0 mg/kg/injection, schedule: Q04DX002 (ip), vehicle: saline with Tween-80) 100 % of control; (dose: 300.0 mg/kg/injection, schedule: Q04DX002 (ip), vehicle: saline with Tween-80) 107 % of control.

For `CC(=O)NCCCc1c(C)nc(NC(C)=O)[nH]c1=O`, the T/C (dose: 25.0 mg/kg/injection, schedule: Q01DX001 (ip), vehicle: saline) was 94 % of control; the T/C (dose: 50.0 mg/kg/injection, schedule: Q01DX001 (ip), vehicle: saline) was 108 % of control; the T/C under setting [5] was 102 % of control.

As to `O=c1cccc2n1Cc1cc3ccccc3nc1-2`, the T/C runs as follows: (dose: 37.5 mg/kg/injection, schedule: Q04DX003 (ip), vehicle: saline) 95 % of control; (dose: 75.0 mg/kg/injection, schedule: Q04DX003 (ip), vehicle: saline) 89 % of control.

With `CC(C)C(NC(=O)C(CCC(=O)O)NC(=O)C(N)Cc1ccc(O)cc1)C(=O)NCC(=O)NC(Cc1ccc(O)cc1)C(=O)NC(CCC(=O)O)C(=O)NC(C(=O)NCC(=O)NCC(=O)O)C(C)C` (stereo not drawn) (H-YEVGYEVGG-OH; configuration not given here), the T/C (dose: 50.0 mg/kg/injection, schedule: Q01DX001 (ip), vehicle: carboxymethylcellulose (CMC)) is 91 % of control; the T/C (dose: 100.0 mg/kg/injection, schedule: Q01DX001 (ip), vehicle: carboxymethylcellulose (CMC)) is 96 % of control; the T/C (dose: 200.0 mg/kg/injection, schedule: Q01DX001 (ip), vehicle: carboxymethylcellulose (CMC)) is 91 % of control.

Regarding `c1ccc(C(CCN2CCCC2)c2ccccn2)cc1` (stereo not drawn), the T/C runs as follows: (dose: 44.0 mg/kg/injection, schedule: Q01DX Z (ip), vehicle: saline) 90 % of control; (dose: 66.0 mg/kg/injection, schedule: Q01DX Z (ip), vehicle: saline) 89 % of control.

On to `CC(C)(C)N1OC1c1cccc(Cl)c1` (stereo not drawn), for which the T/C (dose: 100.0 mg/kg/injection, schedule: Q01DX001 (ip), vehicle: other) is 95 % of control; the T/C under setting [6] is 98 % of control; the T/C (dose: 200.0 mg/kg/injection, schedule: Q01DX001 (ip), vehicle: other) was 94 % of control; the T/C under setting [7] is 93 % of control; the T/C (dose: 400.0 mg/kg/injection, schedule: Q01DX001 (ip), vehicle: other) was 97 % of control; the T/C under setting [4] is 101 % of control.

Turning to `BrCc1cccc2cccc(CBr)c12`, the T/C by setting is: (dose: 50.0 mg/kg/injection, schedule: Q04DX003 (ip), vehicle: Klucel (hydroxypropylcellulose) (HPC)) 97 % of control; (dose: 100.0 mg/kg/injection, schedule: Q01DX001 (ip), vehicle: Klucel (hydroxypropylcellulose) (HPC)) 113 % of control; under setting [6], 101 % of control; (dose: 200.0 mg/kg/injection, schedule: Q01DX001 (ip), vehicle: Klucel (hydroxypropylcellulose) (HPC)) 111 % of control; under setting [7], 103 % of control.

`CCCCCC(=O)Nc1cccc(OC(=O)NC)c1`: the T/C under setting [8] is 98 % of control, the T/C under setting [9] is 97 % of control and the T/C under setting [10] was 89 % of control.

With `C[CH2][Ge]([CH2]C)([CH2]C)[CH2]C#N`, the T/C is 100 % of control (dose: 5.0 mg/kg/injection, schedule: Q04DX002 (ip), vehicle: saline with Tween-80); 103 % of control (dose: 10.0 mg/kg/injection, schedule: Q04DX002 (ip), vehicle: saline with Tween-80); 100 % of control (dose: 20.0 mg/kg/injection, schedule: Q04DX002 (ip), vehicle: saline with Tween-80).

Turning to `OC1CC2CCC1C2` (stereo not drawn), the T/C was 94 % of control under setting [8]; 106 % of control (dose: 100.0 mg/kg/injection, schedule: Q04DX003 (ip), vehicle: saline with Tween-80); 105 % of control under setting [9]; 91 % of control (dose: 200.0 mg/kg/injection, schedule: Q04DX003 (ip), vehicle: saline with Tween-80); 95 % of control under setting [10]; 88 % of control (dose: 400.0 mg/kg/injection, schedule: Q04DX003 (ip), vehicle: saline with Tween-80).

For the molecule `O=C(NCCCCCCNC(=O)Oc1ccccc1F)Oc1ccccc1F`, the T/C by setting is: under setting [1], 102 % of control; under setting [2], 97 % of control; under setting [3], 91 % of control.

Regarding `Cc1ccc(-c2ccc(C)cc2)cc1`, the T/C under setting [6] was 98 % of control, the T/C under setting [7] was 95 % of control and the T/C under setting [4] was 98 % of control.

For `CC1OC(OC2CCC3(C)C(CCC4C3CC(O)C3(C)C(C5=CC(=O)OC5)CCC43O)C2)CC(O)C1OC1CC(O)C(OC2CC(O)C(OC3OC(CO)C(O)C(O)C3O)C(C)O2)C(C)O1` (stereo not drawn), the T/C is 96 % of control (dose: 4.0 mg/kg/injection, schedule: Q01DX015 (sc), vehicle: steriod suspending solution); 104 % of control (dose: 8.0 mg/kg/injection, schedule: Q01DX015 (sc), vehicle: steriod suspending solution); 102 % of control (dose: 16.0 mg/kg/injection, schedule: Q01DX015 (sc), vehicle: steriod suspending solution); 98 % of control (dose: 32.0 mg/kg/injection, schedule: Q01DX015 (sc), vehicle: steriod suspending solution); 100 % of control under setting [5]; 101 % of control (dose: 200.0 mg/kg/injection, schedule: Q01DX001 (ip), vehicle: saline). Further, the T/C (dose: 400.0 mg/kg/injection, schedule: Q01DX001 (ip), vehicle: saline) was 100 % of control.

Consider `COc1ccc(-c2csc(-c3ccccc3)n2)cc1N=Cc1ccc(N(CCCl)CCCl)c(OC)c1`, for which the T/C runs as follows: (dose: 0.96 mg/kg/injection, schedule: Q01DX009 (ip), vehicle: acetone) 106 % of control; (dose: 1.4 mg/kg/injection, schedule: Q01DX009 (ip), vehicle: acetone) 103 % of control; (dose: 5.0 mg/kg/injection, schedule: Q01DX015 (ip), vehicle: carboxymethylcellulose (CMC)) 120 % of control; (dose: 8.0 mg/kg/injection, schedule: Q01DX015 (ip), vehicle: carboxymethylcellulose (CMC)) 113 % of control; (dose: 10.0 mg/kg/injection, schedule: Q01DX009 (ip), vehicle: acetone) 154 % of control; (dose: 20.0 mg/kg/injection, schedule: Q01DX009 (ip), vehicle: acetone) 166 % of control. The T/C is 153 % of control (dose: 20.0 mg/kg/injection, schedule: Q01DX015 (ip), vehicle: carboxymethylcellulose (CMC)); 102 % of control (dose: 40.0 mg/kg/injection, schedule: Q01DX009 (ip), vehicle: acetone); 101 % of control (dose: 66.0 mg/kg/injection, schedule: Q01DX015 (ip), vehicle: carboxymethylcellulose (CMC)); 104 % of control (dose: 100.0 mg/kg/injection, schedule: Q01DX015 (ip), vehicle: carboxymethylcellulose (CMC)).
